Source: publication PMC9021288 (Nature Communications, 2022)
≈ marks a conversion by molar mass, not a printed value. Where “and” joins values, the source holds several entries; their conditions need not be identical. Equal values may be shown once.

Key:
[1] = Population PK model in NSG mice; format: in vivo, female NSG mice; conditions: population PK model estimate
Experimental: (§1) The experimental designs are summarized in Supplementary Table 30. […] Samples were processed under liquid-liquid extraction methods and analyzed by LC-MS/MS for quantitation in a Waters UPLC-TQD (Micromass, Manchester, UK).
(§2) Data preparation, exploration and model pre- and postprocessing were performed using R (version 3.6.3) and R package IQRtools (version 1.2.1 IntiQuan GmbH). Non-linear mixed-effects (NLME) modeling was used to estimate the PK and PD parameters using Monolix (Lixoft version MLX2018R2). The population PKPD model was developed with a two-stage approach: first, a population PK model was determined; then, the individual PK parameters were used as regression parameters and the PD parameters were estimated. The PD model consists of the balance between a parasite net growth rate and a drug killing rate. […] The growth rate of log-transformed parasite concentration was fixed at 0.03 /h based on prior experiments but estimating growth rate interindividual variability. Different Hill coefficients were tested.

[2] = Blood to plasma ratio, mouse
[3] = test system: CYP1A2; assay: CYP induction (mRNA) in human hepatocytes; format: in vitro ADME; conditions: for CYP1A2 mean fold induction: per donor
Experimental: (§3) Positive control inducers (omeprazole for CYP1A2, phenobarbital for CYP2B6, and rifampicin for CYP3A4), were incubated alongside the test compound. For mRNA assessment, cells were lysed and resultant samples analyzed using an ABI 7900 HT real-time PCR system.

[4] = test system: CYP3A4; assay: CYP induction (mRNA) in human hepatocytes; format: in vitro ADME; conditions: for CYP3A4 mean fold induction: per donor
Experimental: as §3

[5] = test system: CYP2B6; assay: CYP induction (mRNA) in human hepatocytes; format: in vitro ADME; conditions: for CYP2B6 mean fold induction: per donor
Experimental: as §3

[6] = test system: P. falciparum Pf3D7^0087/N9 and Pf3D7^20161128TAD17N214; assay: PKPD efficacy studies in humanized NSG mice and PD model; format: in vivo, Plasmodium falciparum
Experimental: as §1, §2

[7] = test system: P. falciparum NF54 sporozoites / liver stages; assay: Liver-stage development in human primary hepatocytes; format: cell-based, Plasmodium falciparum; set-up: infected hepatocytes (Rep1, Rep2): unit not given here
Experimental: To assess parasite development in hepatocytes, cryopreserved human primary hepatocytes (Tebu-Bio lot: HC10-10) were thawed according to the manufacturer’s protocol and seeded (50,000 cells per well) in collagen-coated 96-well plates (Greiner). Cells were cultured at 37 °C in 5% CO2 and the medium was refreshed after 3 h and 24 h. Salivary glands from Anopheles stephensi mosquitoes were dissected to obtain NF54 sporozoites that were added (60,000 per well) to hepatocytes 48 h post-thawing. Plates were spun down and sporozoites were incubated with hepatocytes for 3 h. Subsequently, sporozoites were aspirated and compounds diluted in hepatocyte medium, were added to the hepatocytes (0.1% DMSO final concentration). Medium-containing compounds was refreshed daily for four days. Hepatocytes were fixed with ice-cold methanol and samples were blocked with 10% fetal bovine serum (FBS) in PBS. Samples were incubated with rabbit anti-HSP70 (1:75, StressMarq) in 10% FBS for 1-2 h followed by incubation with secondary goat anti-rabbit AlexaFluor 594 antibody (1:1000, Invitrogen) in 10% FBS for 30 min. Samples were washed with PBS containing 0.05% Tween 20 between different steps. Cells were imaged on the Biotek Cytation and images were analyzed automatically using FIJI software.

[8] = test system: dog primary hepatocytes; assay: Hepatocyte stability, dog; format: in vitro ADME
[9] = Pharmacokinetics in mice; format: in vivo, male CD1 mice
Experimental: Subsequently, samples were spun down at 1640 g for 5-10 min at 4 °C within 30 min after collection and plasma was collected. […] Urine was collected following an intravenous dose in both rat and dog, allowing renal clearance to be estimated. Human renal clearance was estimated from dog renal clearance as previously described[40] and other human PK parameters were predicted using allometric scaling and/or in vitro clearance data. PK parameters were calculated by naïve pooled approach using WinNonLin software (Phoenix, version 6.3).

C[C@@H](CNC(=O)[C@H](O)C(C)(C)CO)NC(=O)c1cc(F)c(F)cc1F [MMV693183]
CL, apparent clearance [1]: 1.25 L/h
Tk0, absorption time [1]: 0.364 h
Vc, apparent central volume [1]: 2.25 L
Vp1, apparent peripheral volume [1]: 799 L
Vp2, apparent second peripheral volume [1]: 1.81 L
B:P [2]: 0.98
CYP1A2 mean fold induction ([3]; 5 µM): 1.48 and 1.11 and 1.38
CYP1A2 mean fold induction ([3]; 15 µM): 1.04 and 1.07 and 0.844
CYP1A2 mean fold induction ([3]; 50 µM): 0.874 and 0.824 and 0.795
CYP1A2 mean fold induction ([3]; 150 µM): 0.704 and 0.613 and 0.609
CYP1A2 mean fold induction ([3]; 250 µM): 0.586 and 0.436
CYP1A2 mean fold induction ([3]; 500 µM): 0.357 and 0.496 and 0.293
CYP1A2 induction ([3]; up to 500 µM): did not induce CYP1A2 nor CYP2B6
CYP3A4 mean fold induction ([4]; 5 µM): 1.22 and 1.03 and 1.21
CYP3A4 mean fold induction ([4]; 15 µM): 0.824 and 0.905 and 0.816
CYP3A4 mean fold induction ([4]; 50 µM): 0.779 and 0.500 and 1.26
CYP3A4 mean fold induction ([4]; 150 µM): 1.19 and 0.477 and 1.98
CYP3A4 mean fold induction ([4]; 250 µM): 0.665 and 2.86
CYP3A4 mean fold induction ([4]; 500 µM): 3.6 and 3.63 and 1.49 and 3.16
concentration at which CYP3A4 was induced ([4]; 72 h, three donors): greater than 150 µM
CYP2B6 mean fold induction ([5]; 5 µM): 1.75 and 0.995 and 1.18
CYP2B6 mean fold induction ([5]; 15 µM): 1.38 and 0.951 and 1.660
CYP2B6 mean fold induction ([5]; 50 µM): 0.959 and 0.828 and 0.886
CYP2B6 mean fold induction ([5]; 150 µM): 0.663 and 0.721 and 0.727
CYP2B6 mean fold induction ([5]; 250 µM): 0.667 and 0.582
CYP2B6 mean fold induction ([5]; 500 µM): 0.495 and 0.699 and 0.325
CYP2B6 induction ([5]; up to 500 µM): did not induce CYP1A2 nor CYP2B6
EC50, concentration achieving 50percent of maximum effect ([6]; PD model estimate): 11.5 ng/mL
MIC ([6]; PKPD model): 3.2 ng/mL (≈ 8.83 nM)
MPC90 ([6]; PKPD model): 38.4 ng/mL
ED90 ([6]; in vivo): 4.4 mg/kg
time at which 3D7 parasites were cleared ([6]; single-dose groups): 4 to 6 days
efficacy against liver stages [7]: not efficacious against liver stages
infected hepatocytes (Rep1, Rep2) ([7]; log concentration (M) -5): 0.0299 and 0.0223
infected hepatocytes (Rep1, Rep2) ([7]; log concentration (M) -5.5): 0.0585 and 0.0696
infected hepatocytes (Rep1, Rep2) ([7]; log concentration (M) -7): 0.3352 and 0.4993
infected hepatocytes (Rep1, Rep2) ([7]; log concentration (M) -7.5): 0.3658 and 0.5068
Compound Remaining (% of 0 min) ([8]; 0 min): 100%
Compound Remaining (% of 0 min) ([8]; 5 min): 92.3%
Compound Remaining (% of 0 min) ([8]; 10 min): 91.7%
Compound Remaining (% of 0 min) ([8]; 20 min): 92.7%
Compound Remaining (% of 0 min) ([8]; 40 min): 85.2%
Compound Remaining (% of 0 min) ([8]; 60 min): 83.9%
Observed hepatic/ predicted hepatic ([9]; Mouse): < 1.9
Observed total-renal = observed hepatic ([9]; Mouse): < 13.4 mL/min/kg
Predicted hepatic plasma clearance ([9]; Mouse, from in vitro hepatic clearance, Fu,p and B:P): 7 mL/min/kg and 7.0 mL/min/kg
Norm. conc i.v. ([9]; Mouse, Time (hrs) 0): 0 ng/mL
Norm. conc i.v. ([9]; Mouse, Time (hrs) 0.083333): 1320 ng/mL and 1393.33 ng/mL and 1330 ng/mL
Norm. conc i.v. ([9]; Mouse, Time (hrs) 0.25): 846.667 ng/mL and 920 ng/mL and 863.333 ng/mL
Norm. conc i.v. ([9]; Mouse, Time (hrs) 0.5): 636.667 ng/mL and 626.667 ng/mL and 630 ng/mL
Norm. conc i.v. ([9]; Mouse, Time (hrs) 1): 324.667 ng/mL and 366.667 ng/mL and 300 ng/mL
Norm. conc i.v. ([9]; Mouse, Time (hrs) 2): 132.333 ng/mL and 151 ng/mL and 104 ng/mL
Norm. conc i.v. ([9]; Mouse, Time (hrs) 4): 39.3333 ng/mL and 48.3333 ng/mL and 26.9333 ng/mL
Norm. conc p.o. ([9]; Mouse, Time (hrs) 0): 0 ng/mL
Norm. conc p.o. ([9]; Mouse, Time (hrs) 0.25): 870 ng/mL and 850 ng/mL and 790 ng/mL
Norm. conc p.o. ([9]; Mouse, Time (hrs) 0.5): 610 ng/mL and 600 ng/mL and 553.333 ng/mL
Norm. conc p.o. ([9]; Mouse, Time (hrs) 1): 333.333 ng/mL and 313.333 ng/mL and 271.333 ng/mL
Norm. conc p.o. ([9]; Mouse, Time (hrs) 2): 115 ng/mL and 103.667 ng/mL and 65 ng/mL
Norm. conc p.o. ([9]; Mouse, Time (hrs) 24): 0.01333 ng/mL and 0.02 ng/mL
AUC0-∞ ([9]; i.v. 3 mg/kg, mean): 3764.7 ng·h/mL
AUClast ([9]; i.v. 3 mg/kg, mean): 3763.8 ng·h/mL
C0 ([9]; i.v. 3 mg/kg, mean): 5013.7 ng/mL
Kel ([9]; i.v. 3 mg/kg, mean): 0.58 h⁻¹
Vss_obs ([9]; i.v. 3 mg/kg, mean): 1.0265 L/kg
CLtotal ([9]; i.v. 3 mg/kg, mean, 3 mg/kg): 13.4 mL/min/kg and 13.36 mL/min/kg
T1/2 ([9]; i.v. 3 mg/kg, mean, 3 mg/kg): 1.2 h and 1.19 h
share of total clearance contributed by the kidney ([9]; mice): 48%
clearance contributed by the kidney ([9]; mice, total minus predicted hepatic): 6.4 mL/min/kg
%F ([9]; p.o. 30 mg/kg, mean): 70.03%
AUC0-∞ ([9]; p.o. 30 mg/kg, mean): 26362.9 ng·h/mL
AUClast ([9]; p.o. 30 mg/kg, mean): 26362.2 ng·h/mL
CLtotal ([9]; p.o. 30 mg/kg, mean): 19.21 mL/min/kg
Cmax ([9]; p.o. 30 mg/kg, mean): 25100.0 ng/mL
Kel ([9]; p.o. 30 mg/kg, mean): 0.67 h⁻¹
T1/2 ([9]; p.o. 30 mg/kg, mean): 1.05 h
Tmax ([9]; p.o. 30 mg/kg, mean): 0.25 h
